“Also recorded” adds a separate entry of the source.
Columns and labels:
morning glory [1] = conditions: solution sprayed to leaves of morning glory, non-inducing conditions; cited from earlier work
potato [2] = conditions: solution sprayed to leaflets of potato, non-inducing conditions; cited from earlier work
potato [3] = conditions: culture of a single node section of a potato stem; cited from earlier work
[4] = tested on: spinach (Spinacia oleracea L.); test: Stem elongation (bolting) of spinach after foliar spraying; format: in vivo
Procedure: (§1) In other words, while they searched for the substance having bolting induction inhibition and/or floral differentiation inhibition activities, they examine the effect of theobroxide on stem elongation and differentiation of floral-buds in spinach (long-day plant), after spraying theobroxide on the surfaces of spinach leaves. The day-length conditions examined were long-day (16 hours-light period, 8 hours-dark period), and short-day (10 hours-light period, 14 hours-dark period). The concentration of theobroxide for foliar application is set at 10^−3 M, and testing was started after a preliminary growth (two weeks, long-day condition). The spraying condition was that 5 ml of the solution was sprayed over four weeks every two days after the preliminary growth. As the results, under the short-day condition (bolting non-inducing condition), no difference was observed when compared to the control. Under the long-day condition (bolting induction and floral differentiation condition), the stem elongation of the theobroxide treated plants was suppressed 37% in the fourth week, when compared to that of the control.
(§2) Before the test, spinach was grown for 5 weeks in a growth chamber (NK Systems, Biotron NC350), under a short-day (SD) condition (light period-10 hours/dark period-14 hours) with a peat moss/Pearlite mixture (1:1.5, v/v). A test solution was sprayed on leaves every two days. Water and Hyponex in liquid form (manufactured by Hyponex Japan Co.) were given to the plants every two days and once a week, respectively. The long-day (LD) and short-day (SD) photoperiodic cycles were 16-hour light period/8-hour dark period, and 10-hours light period/14-hour dark period, respectively. The growth chamber was equipped with 20 fluorescent lamps (NEC FL40SEX-N-HG) to provide a light intensity of 90 μmol^−2s^−1, and set at 25 degrees centigrade and the relative humidity of 60%. The test used ten plants for each processing, and was repeated at least three times.
The theobroxide for the test was isolated from the incubation filtrate of Lasiodiplodia theobromae. The data of NMR, RI and MS were compared with the standard one and their structures were confirmed. Theobroxide was dissolved in distilled water that includes Tween 20 (100 ppm) to adjust its concentration to 10^−3M. To the plants for the control, the same amount of distilled water including 100 ppm of Tween 20 was given. The two kinds of solution were given to leaves of the plants, the total of 5 ml per plant, every two days, using plastic spray bottles. […] Stem heights from the bases of stems to the tip of the stems or the inflorescence were measured (Plant Physiol.: 821-827,1971).

morning glory [5] = conditions: in vivo; cited from earlier work
[6] = tested on: spinach (Spinacia oleracea L.); test: Floral differentiation of spinach after foliar spraying; format: in vivo; conditions: 10^-3 M foliar spray; for Floral Differentiation Rate (%) Average: mean of three tests
Procedure: as §1, §2
The theobroxide for the test was isolated from the incubation filtrate of Lasiodiplodia theobromae. The data of NMR, RI and MS were compared with the standard one and their structures were confirmed. Theobroxide was dissolved in distilled water that includes Tween 20 (100 ppm) to adjust its concentration to 10^−3M. To the plants for the control, the same amount of distilled water including 100 ppm of Tween 20 was given. The two kinds of solution were given to leaves of the plants, the total of 5 ml per plant, every two days, using plastic spray bottles. After planting them in advance, 20 boxes were transferred to the LD condition for a LD treatment (10 boxes of which was for control, and the other 10 boxes for the theobroxide treatment). After planting them in advance, 20 boxes were left under the SD for a SD treatment as before (10 boxes of which is for the control, and the other 10 boxes for theobroxide treatment). Stem heights from the bases of stems to the tip of the stems or the inflorescence were measured (Plant Physiol.: 821-827,1971).
In addition, in the tests shown in Table 1, plants were grown under a long-day condition for six weeks. The theobroxide treatment was started after they were transferred to the long-day condition. After six weeks, the plants were collected, and the number of the plants in which floral differentiation took place was counted.

CC1=CC(O)C2OC2C1O (stereo not shown) [theobroxide, 3,6-dihydroxy-4,5-epoxy-1-methylcyclohexene]
flower buds inducing activity (morning glory [1]): flower buds inducing activity
potato tuber formation (potato [2]): strong potato tuber formation
potato tuber formation activity (potato [3]): strong potato tuber formation activity
stem elongation (FIGS. 3A-B, FIG. 4), result in words ([4]; induction condition (LD), theobroxide treatment): stem elongation was suppressed
suppression effect on stem lengths compared to the control ([4]; long-day (LD) condition, 10^-3 M foliar spray, after six weeks): 37%
suppression of stem elongation compared to the control ([4]; long-day condition, 10^-3 M foliar spray, 5 ml every two days, fourth week): 37%
difference in stem lengths compared to the control ([4]; short-day condition (bolting non-inducing), 10^-3 M foliar spray): no difference; also recorded: not apparent difference
effect on stem elongation of morning glory (morning glory [5]): inhibitory effect
Floral Differentiation Rate (%) Test 1 ([6]; long-day condition, six weeks, Test 1): 50% (5/10)
Floral Differentiation Rate (%) Test 2 ([6]; long-day condition, six weeks, Test 2): 40% (4/10)
Floral Differentiation Rate (%) Average ([6]; long-day condition, six weeks): 43.3%
Floral Differentiation Rate (%) Average ([6]; long-day condition, six weeks, listed as Theobroxide): 43.3%
difference in flower formation compared to the control ([6]; short-day condition): no difference; also recorded: not apparent difference
